Experimental data from article PMC8038331, “Discovery of a Novel Acetylcholinesterase Inhibitor by Fragment-Based Design and Virtual Screening” (Molecules, 2021).
pIC50: −log10 of the molar value. Values joined by “and” are separate entries in the source; they are usually repeats but may differ in a detail not shown here. Equal values may be shown once.

Legend:
[1] = biological target: T1, acetylcholinesterase from Electrophorus electricus (eeAChE) (Electrophorus electricus, UniProt O42275); experiment: biochemical; assay type: biochemical
T1 construct: purchased Sigma-Aldrich
Procedure: However, the docking simulations were conducted on human AChE (rhAChE).
The microplate assay used for measuring AChE inhibitory activity was as described by Ellman with the modifications added by López. Acetylthiocholine iodide (ATCI) in a solution with 5,5′-dithiobis(2-nitrobenzoic acid) (DTNB) was used as a substrate for the acetylcholinesterase from Electrophorus electricus (Steinheim, Sigma-Aldrich, Germany). 50 μL of AChE (0.25 U/mL) dissolved in phosphate buffer (8 mM K2HPO4, 2.3 mM NaH2PO4, 0.15 M NaCl, pH 7.5) and 50 μL of the sample dissolved in the same buffer were added to the wells. The plates were incubated for 30 min at room temperature before the addition of 100 μL of the substrate solution (0.04 M Na2HPO4, 0.2 mM DTNB, 0.24 mM ATCI, pH 7.5). […] Enzyme activity was calculated as an inhibition percentage compared to an assay using a buffer without any inhibitor. […] The AChE inhibitory data were analyzed with the software package Prism 9 (GraphPad Inc., San Diego, USA). The IC50 values were measured in triplicate, and the results are presented as means ± SD.

[2] = Neurotoxicity test, MTT-dye reduction assay on neuro-2A cells; assay type: cell-based, murine; details: mouse, neuro-2A neuroblastoma cells, 72 h incubation
Procedure: The cytotoxicity of compound 8 was tested on neuro-2A cells as described in the Materials and Мethods section.
To assess the neurocytotoxicity of the selected compound, murine neuroblastoma neuro-2A cells (German collection DSMZ, Braunschweig, Germany) were used. They were cultivated under standard conditions: complete medium (90% DMEM, 10% heat-inactivated FBS, and non-essential amino acids); 37 °C and 5% CO2 in a fully humidified atmosphere. The cell line was kept in the logarithmic growth phase by splitting 1:4 once a week using trypsin/EDTA. About 30% of the cells grew like neuronal cells. For the experimental evaluation of the cytotoxicity, the cells were plated in 96-well flat-bottomed plates at the recommended density of around 1100 cells/25 cm^2. After 24 h, the cells were treated with a series of concentrations (100, 50, 25, 12.5, 6.25 µM) of the tested compound, and after 72 h incubation, an MTT-dye reduction assay was performed. MTT stock solution (10 mg/mL in PBS) was added (0.01 mL/well) at the end of incubation. Plates were further incubated at 37 °C for 4 h. Next, the formazan crystals were dissolved by the addition of 0.110 mL/well 5% formic acid in 2-propanol (v/v). Absorption was measured at 580 nm wavelength on an automated ELISA reader Labexim LMR1. […]

[3] = system: murine neuroblastoma neuro-2A cells; details: read-out: Neurotoxicity on neuro-2A cells (IC50); cited from earlier work

T1 sequence (O42275 24-633): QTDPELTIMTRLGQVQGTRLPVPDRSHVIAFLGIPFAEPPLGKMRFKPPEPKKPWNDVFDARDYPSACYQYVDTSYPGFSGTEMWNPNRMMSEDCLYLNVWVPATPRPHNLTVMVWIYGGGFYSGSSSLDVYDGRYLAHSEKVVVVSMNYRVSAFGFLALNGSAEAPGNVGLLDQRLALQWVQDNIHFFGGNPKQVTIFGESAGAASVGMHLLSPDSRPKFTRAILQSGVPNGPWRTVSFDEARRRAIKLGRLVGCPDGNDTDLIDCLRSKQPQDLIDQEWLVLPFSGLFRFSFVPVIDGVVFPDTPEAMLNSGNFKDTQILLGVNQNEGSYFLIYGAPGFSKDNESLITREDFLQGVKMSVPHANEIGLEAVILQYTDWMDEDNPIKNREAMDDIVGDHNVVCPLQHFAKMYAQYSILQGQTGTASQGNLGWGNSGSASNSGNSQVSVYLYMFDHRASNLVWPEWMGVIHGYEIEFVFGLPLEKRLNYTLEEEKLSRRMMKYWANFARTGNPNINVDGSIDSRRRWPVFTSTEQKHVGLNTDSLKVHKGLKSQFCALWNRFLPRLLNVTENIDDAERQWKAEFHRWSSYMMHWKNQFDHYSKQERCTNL

Structure (SMILES)	Times more active than GAL (AChE inhibition) [1] [times]	pIC50 ([1]; eeAChE, Ellman's method, 30 min preincubation, mean ± SD, triplicate, read-out: Inhibitory activity on eeAChE (IC50))	IC50 at 72 h [2] [nM]	pIC50 [3]
COc1ccc2c3c1O[C@H]1C[C@@H](O)C=C[C@@]31CCN(CCNC(=O)CCc1ccccc1-c1ccccc1)C2 [Compound 8, 3-(biphenyl-2-yl)-N-{2-[(4aS,6R,8aS)-6-hydroxy-3-methoxy-5,6,9,10-tetrahydro-4aH-[1]benzofuro[3a,3,2-ef][2]benzazepin-11(12H)-yl]ethyl}propanamide]	68	7.55 and 7.56	> 100000	
COc1ccc2c3c1O[C@H]1C[C@@H](O)C=C[C@@]31CCN(C)C2 [GAL, Galantamine]				< 4.30
